Measured values published in ChEMBL document CHEMBL1914417 (Bioorg Med Chem Lett, 2011).
Residue numbers refer to the chain shown, from its start.

How the values were obtained:
D(2) dopamine receptor = D(2) dopamine receptor (Homo sapiens, UniProt P14416); test: Antagonist activity at dopamine D2 receptor; format: functional
[1] = target: T1, Muscarinic acetylcholine receptor M1 (Rattus norvegicus, UniProt P08482); test: Agonist activity at rat muscarinic M1 receptor expressed in CHO cells; format: functional, cell-based
T1 sequence (P08482 whole entry): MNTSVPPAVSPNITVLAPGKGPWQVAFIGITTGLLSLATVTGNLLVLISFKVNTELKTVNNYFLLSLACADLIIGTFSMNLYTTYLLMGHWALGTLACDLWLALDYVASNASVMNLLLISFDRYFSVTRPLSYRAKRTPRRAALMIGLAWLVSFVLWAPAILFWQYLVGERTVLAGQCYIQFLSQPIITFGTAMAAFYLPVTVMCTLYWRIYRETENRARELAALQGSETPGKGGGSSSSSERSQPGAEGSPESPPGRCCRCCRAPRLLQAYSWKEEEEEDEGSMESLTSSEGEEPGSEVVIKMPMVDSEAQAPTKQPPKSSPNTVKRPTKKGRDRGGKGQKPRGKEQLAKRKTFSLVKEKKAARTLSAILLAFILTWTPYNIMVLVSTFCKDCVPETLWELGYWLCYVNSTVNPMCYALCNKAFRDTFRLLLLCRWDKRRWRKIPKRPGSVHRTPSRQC

[2] = target: T2, Muscarinic acetylcholine receptor M1 (Rattus norvegicus) (UniProt P08482); test: Agonist activity at rat muscarinic M1 receptor expressed in CHO cells relative to acetylcholine; format: functional, cell-based
T2 sequence (whole entry): T1 sequence (P08482 whole entry)

[3] = target: T3, Muscarinic acetylcholine receptor M4 (Rattus norvegicus, UniProt P08485); test: Agonist activity at rat muscarinic M4 receptor expressed in CHO cells; format: functional, cell-based
T3 sequence (P08485 whole entry): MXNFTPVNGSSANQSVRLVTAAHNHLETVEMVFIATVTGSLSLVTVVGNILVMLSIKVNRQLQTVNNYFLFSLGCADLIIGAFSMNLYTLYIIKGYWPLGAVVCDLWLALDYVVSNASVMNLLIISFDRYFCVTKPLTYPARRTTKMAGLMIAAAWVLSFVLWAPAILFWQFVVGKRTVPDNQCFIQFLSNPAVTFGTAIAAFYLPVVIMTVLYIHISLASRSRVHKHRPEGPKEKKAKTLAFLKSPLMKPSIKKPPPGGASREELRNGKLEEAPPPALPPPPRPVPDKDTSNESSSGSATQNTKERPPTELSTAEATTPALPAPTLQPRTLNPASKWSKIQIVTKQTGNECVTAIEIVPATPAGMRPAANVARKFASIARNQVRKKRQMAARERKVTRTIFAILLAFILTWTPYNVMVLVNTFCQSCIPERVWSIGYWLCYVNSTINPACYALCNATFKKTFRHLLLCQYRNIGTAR

[4] = target: T4, Muscarinic acetylcholine receptor M1 (Homo sapiens, UniProt P11229); test: Agonist activity at human recombinant muscarinic M1 receptor by HTS cell based assay; format: functional
T4 sequence (P11229 whole entry): T1 sequence (P08482 whole entry) with V5A, S254T, S309P, K320R, G337A, V413I

[5] = target: T1, Muscarinic acetylcholine receptor M1; test: Agonist activity at rat recombinant muscarinic M1 receptor by HTS cell based assay; format: functional
[6] = target: T5, Muscarinic acetylcholine receptor M2 (Rattus norvegicus, UniProt P10980); test: Agonist activity at rat recombinant muscarinic M2 receptor by HTS cell based assay; format: functional
T5 sequence (P10980 whole entry): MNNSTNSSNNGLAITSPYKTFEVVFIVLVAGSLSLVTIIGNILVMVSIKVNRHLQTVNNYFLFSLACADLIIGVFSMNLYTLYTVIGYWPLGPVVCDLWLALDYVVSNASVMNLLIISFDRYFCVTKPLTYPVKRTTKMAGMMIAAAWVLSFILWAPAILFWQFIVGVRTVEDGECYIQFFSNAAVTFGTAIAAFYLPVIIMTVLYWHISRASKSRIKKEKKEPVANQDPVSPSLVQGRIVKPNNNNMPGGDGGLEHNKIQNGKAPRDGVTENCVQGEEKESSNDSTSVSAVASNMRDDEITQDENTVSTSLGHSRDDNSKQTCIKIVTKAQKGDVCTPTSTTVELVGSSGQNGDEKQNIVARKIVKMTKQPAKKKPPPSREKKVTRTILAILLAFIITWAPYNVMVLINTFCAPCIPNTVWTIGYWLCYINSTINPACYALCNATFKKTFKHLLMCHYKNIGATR

[7] = target: Muscarinic acetylcholine receptor M3 (Rattus norvegicus, UniProt P08483); test: Agonist activity at rat recombinant muscarinic M3 receptor by HTS cell based assay; format: functional
Chain of Muscarinic acetylcholine receptor M3 (P08483 whole entry): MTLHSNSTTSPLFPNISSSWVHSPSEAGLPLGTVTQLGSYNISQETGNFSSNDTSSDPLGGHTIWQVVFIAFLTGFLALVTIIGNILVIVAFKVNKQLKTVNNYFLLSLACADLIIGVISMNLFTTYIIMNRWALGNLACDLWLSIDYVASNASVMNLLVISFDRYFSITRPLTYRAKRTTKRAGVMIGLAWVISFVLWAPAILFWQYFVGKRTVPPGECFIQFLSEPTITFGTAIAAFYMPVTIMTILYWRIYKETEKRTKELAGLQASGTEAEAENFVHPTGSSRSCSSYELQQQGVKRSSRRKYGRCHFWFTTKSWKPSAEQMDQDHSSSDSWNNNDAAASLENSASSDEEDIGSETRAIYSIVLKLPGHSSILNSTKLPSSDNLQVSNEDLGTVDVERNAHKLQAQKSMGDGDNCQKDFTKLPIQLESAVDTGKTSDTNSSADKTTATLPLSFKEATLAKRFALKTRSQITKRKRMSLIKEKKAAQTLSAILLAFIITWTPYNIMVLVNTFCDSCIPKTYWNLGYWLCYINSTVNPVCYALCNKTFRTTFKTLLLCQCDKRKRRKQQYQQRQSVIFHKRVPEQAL

[8] = target: T6, Muscarinic acetylcholine receptor M5 (Homo sapiens, UniProt P08912); test: Agonist activity at human recombinant muscarinic M5 receptor by HTS cell based assay; format: functional
T6 sequence (P08912 whole entry): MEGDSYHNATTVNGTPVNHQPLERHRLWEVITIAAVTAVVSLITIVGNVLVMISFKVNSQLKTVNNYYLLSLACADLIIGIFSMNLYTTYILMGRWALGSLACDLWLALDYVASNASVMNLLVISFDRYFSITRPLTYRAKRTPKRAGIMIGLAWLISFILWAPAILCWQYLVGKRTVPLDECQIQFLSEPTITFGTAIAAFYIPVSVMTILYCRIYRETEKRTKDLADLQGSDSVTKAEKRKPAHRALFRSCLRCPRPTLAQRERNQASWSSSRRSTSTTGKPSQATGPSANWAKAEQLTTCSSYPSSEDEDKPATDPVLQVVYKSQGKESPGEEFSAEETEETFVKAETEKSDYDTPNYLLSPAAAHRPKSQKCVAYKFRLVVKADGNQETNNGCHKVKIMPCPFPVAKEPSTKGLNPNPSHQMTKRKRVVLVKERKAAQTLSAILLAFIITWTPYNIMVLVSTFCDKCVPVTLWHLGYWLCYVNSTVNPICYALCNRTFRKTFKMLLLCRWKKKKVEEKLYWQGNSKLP

hERG (KCNH2) = hERG (KCNH2) (Homo sapiens, UniProt Q12809); test: Inhibition of human ERG at 10 uM
Chain of hERG (KCNH2) (Q12809 whole entry): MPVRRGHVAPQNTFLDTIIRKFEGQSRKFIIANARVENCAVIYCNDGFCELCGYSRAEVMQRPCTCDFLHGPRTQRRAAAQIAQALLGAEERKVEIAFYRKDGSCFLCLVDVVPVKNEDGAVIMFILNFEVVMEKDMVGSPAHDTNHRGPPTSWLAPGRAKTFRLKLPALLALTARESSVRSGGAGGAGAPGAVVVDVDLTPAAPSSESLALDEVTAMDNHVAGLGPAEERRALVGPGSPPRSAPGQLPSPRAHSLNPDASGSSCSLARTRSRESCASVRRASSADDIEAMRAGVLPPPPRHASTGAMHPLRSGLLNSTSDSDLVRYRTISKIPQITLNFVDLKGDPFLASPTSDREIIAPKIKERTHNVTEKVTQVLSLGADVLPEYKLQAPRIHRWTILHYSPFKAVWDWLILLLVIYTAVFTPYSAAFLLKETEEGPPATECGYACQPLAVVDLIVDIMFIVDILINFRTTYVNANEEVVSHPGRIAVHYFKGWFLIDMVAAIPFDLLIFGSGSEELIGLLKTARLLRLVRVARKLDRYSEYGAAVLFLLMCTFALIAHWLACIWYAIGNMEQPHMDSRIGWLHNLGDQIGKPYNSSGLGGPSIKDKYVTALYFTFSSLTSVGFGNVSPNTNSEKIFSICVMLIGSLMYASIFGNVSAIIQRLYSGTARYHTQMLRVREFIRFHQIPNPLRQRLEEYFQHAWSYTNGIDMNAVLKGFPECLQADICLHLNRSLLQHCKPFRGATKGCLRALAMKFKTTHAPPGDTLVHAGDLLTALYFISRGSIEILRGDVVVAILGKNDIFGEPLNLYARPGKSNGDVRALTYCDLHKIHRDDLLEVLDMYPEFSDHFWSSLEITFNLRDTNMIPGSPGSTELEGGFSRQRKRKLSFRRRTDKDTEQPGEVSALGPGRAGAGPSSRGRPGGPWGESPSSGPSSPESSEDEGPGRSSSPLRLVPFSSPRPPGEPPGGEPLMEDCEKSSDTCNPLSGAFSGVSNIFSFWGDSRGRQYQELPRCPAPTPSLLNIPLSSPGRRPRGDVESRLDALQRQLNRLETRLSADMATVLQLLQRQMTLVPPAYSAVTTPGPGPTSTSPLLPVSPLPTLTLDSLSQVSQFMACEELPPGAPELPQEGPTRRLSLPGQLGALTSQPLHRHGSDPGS

[9] = Clearance in rat at 1 mg/kg, iv and 10 mg/kg, po; format: ADME, organism-based; settings: in vivo
[10] = Half life in rat 1 mg/kg, iv and 10 mg/kg, po; format: ADME, organism-based; settings: in vivo
[11] = AUC in rat at 10 mg/kg, po; format: ADME, organism-based; parameters: dose 10 mg/kg, route oral; settings: plasma
[12] = Plasma concentration in Sprague-Dawley rat at 10 mg/kg, po after 90 mins; format: ADME, organism-based; parameters: dose 10 mg/kg, route oral

Chain of D(2) dopamine receptor (P14416 whole entry): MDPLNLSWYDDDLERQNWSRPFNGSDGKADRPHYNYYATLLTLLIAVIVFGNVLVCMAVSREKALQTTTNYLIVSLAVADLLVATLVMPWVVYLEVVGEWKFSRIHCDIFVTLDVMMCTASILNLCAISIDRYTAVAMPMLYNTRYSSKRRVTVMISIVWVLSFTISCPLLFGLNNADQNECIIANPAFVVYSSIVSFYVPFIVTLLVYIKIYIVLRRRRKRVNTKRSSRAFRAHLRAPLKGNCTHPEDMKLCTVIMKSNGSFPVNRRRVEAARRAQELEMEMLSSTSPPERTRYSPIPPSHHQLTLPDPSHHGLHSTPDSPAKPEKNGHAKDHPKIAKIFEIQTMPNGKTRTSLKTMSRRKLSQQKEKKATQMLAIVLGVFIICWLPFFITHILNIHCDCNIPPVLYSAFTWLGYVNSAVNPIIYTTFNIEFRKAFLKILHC

| Structure (SMILES) | IC50 (D(2) dopamine receptor) [nM] | EC50 ([1]; cho) [nM] | Emax [2] [%] | EC50 [3] [nM] | EC50 [4] [nM] | EC50 [5] [nM] | EC50 [6] [nM] | EC50 [7] [nM] | EC50 [8] [nM] | EC50 [1] [nM] | inhibition at 10 µM (hERG (KCNH2)) [%] | clearance [9] [mL/min/kg] | half-life [10] [min] | AUC [11] [ng·h/mL] | concentration at 1.5 h [12] [nM] |
| --- | --- | --- | --- | --- | --- | --- | --- | --- | --- | --- | --- | --- | --- | --- | --- |
| CCOC(=O)N1CCC(NCCNC(=O)c2ccccc2C)CC1 | 4500 | 200 | 81 | > 30000 | 2300 | 2300 | > 30000 | > 30000 | > 30000 |  |  |  |  |  |  |
| CCOC(=O)N1CCC(N2CCC[C@@H](NC(=O)c3ccccc3C)C2)CC1 | > 30000 |  | 96 | > 30000 | 1300 | 1300 | > 30000 | > 30000 | > 30000 | 110 | 22 | 14.7 | 46 | 4200 | 1450 |
